Laboratory results reported in ChEMBL document CHEMBL5126640, “Sanggenon C Suppresses Tumorigenesis of Gastric Cancer by Blocking ERK-Drp1-Mediated Mitochondrial Fission” (J Nat Prod, 2022).
pIC50: −log10 of the molar value. The source made the active and inactive calls. The calls are words filed in the database; no cut-off is given here.

Columns and labels:
[1] = Toxicity in nude mouse xenografted with human AGS cells assessed as effect on lung morphology at 10 to 20 mg/kg, ip administered every other day and monitored every 3 days by Hematoxyin-eosin staining based analysis; format: organism-based; settings: in vivo, 72 h, dose 10-20 mg/kg, time 3 day
[2] = test system: HGC-27; assay: Inhibition of mitochondrial fission in human HGC-27 cells assessed as reduction in punctiform mitochondria at 0 to 6 uM measured after 24 hrs by mitotracker based confocal microscopy; format: functional; settings: dose 0-6 µM
[3] = Toxicity in nude mouse xenografted with human AGS cells assessed as effect on aspartate aminotransferase level at 10 to 20 mg/kg, ip administered every other day and monitored every 3 days; format: organism-based; settings: in vivo, 72 h, dose 10-20 mg/kg, time 3 day
[4] = Toxicity in nude mouse xenografted with human AGS cells assessed as effect on body weight at 10 to 20 mg/kg, ip administered every other day and monitored every 3 days; format: organism-based; settings: in vivo, 72 h, dose 10-20 mg/kg, time 3 day
[5] = test system: HGC-27; assay: Induction of mitochondrial dysfunction in human HGC-27 cells assessed as decrease in mitochondrial membrane potential measured after 24 hrs by JC-1 staining based flow cytometry; format: functional, cell-based; settings: DDE = dose-dependent effect
[6] = test system: HGC-27; assay: Antiproliferative activity against human HGC-27 cells assessed as reduction in cell growth measured after 24 hrs by CCK8 assay; format: functional, cell-based; settings: HGC-27, 24 h
[7] = test system: HGC-27; assay: Induction of apoptosis in human HGC-27 cells assessed as upregulation of Bax level at 0 to 10 uM by Western blot analysis; format: functional, cell-based; settings: dose 0-10 µM
[8] = test system: AGS; assay: Inhibition of mitochondrial fission in human AGS cells assessed as reduction in punctiform mitochondria at 0 to 6 uM measured after 24 hrs by mitotracker based confocal microscopy; format: functional; settings: dose 0-6 µM
[9] = test system: AGS; assay: Induction of apoptosis in human AGS cells assessed as late apoptotic cells at 8 uM measured after 24 hrs by AnnexinV-FITC/PI staining based flowcytometry method (reference value: 3.4%); format: functional
[10] = test system: AGS; assay: Antitumor activity against human AGS cells xenografted in nude mouse assessed as suppression of tumor burden at 10 to 20 mg/kg, ip administered every other day and monitored every 3 days; format: functional, organism-based; settings: dose 10-20 mg/kg, time 3.0 day
[11] = test system: HGC-27; assay: Induction of apoptosis in human HGC-27 cells transfected with pcDNA3.1-Drp1 plasmid to overexpress DRP1 assessed as necrotic cells measured after 24 hrs by AnnexinV-FITC/PI staining based flow cytometry method (reference value: 0%); format: functional
[12] = test system: HGC-27; assay: Induction of cell cycle arrest in human HGC-27 cells assessed as accumulation of cells at G0/G1 phase at 6 uM incubated for 24 hrs propidium iodide staining-based flow cytometric analysis (reference value: 45.21%); format: functional
[13] = test system: AGS; assay: Inhibition of mitochondrial fission in human AGS cells assessed as downregulation of p-DRP1 at 0 to 10 uM measured after 24 hrs by Western blot analysis; format: functional, cell-based; settings: dose 0-10 µM
[14] = test system: AGS; assay: Induction of apoptosis in human AGS cells assessed as late apoptotic cells measured after 24 hrs by AnnexinV-FITC/PI staining based flow cytometry method (reference value: 2.4%); format: functional
[15] = test system: HGC-27; assay: Induction of apoptosis in human HGC-27 cells assessed as early apoptotic cells at 6 uM measured after 24 hrs by AnnexinV-FITC/PI staining based flowcytometry method (reference value: 3.3%); format: functional
[16] = test system: HGC-27; assay: Induction of apoptosis in human HGC-27 cells assessed as necrotic cells at 10 uM measured after 24 hrs by AnnexinV-FITC/PI staining based flowcytometry method (reference value: 0.2%); format: functional
[17] = test system: AGS; assay: Antitumor activity against human AGS cells xenografted in nude mouse assessed as downregulation of p-DRP1 levels at 10 to 20 mg/kg, ip administered every other day and monitored every 3 days; format: functional, organism-based; settings: dose 10-20 mg/kg, time 3.0 day
[18] = test system: HGC-27; assay: Induction of apoptosis in human HGC-27 cells transfected with pcDNA3.1-Drp1 plasmid to overexpress DRP1 assessed as early apoptotic cells measured after 24 hrs by AnnexinV-FITC/PI staining based flow cytometry method (reference value: 2.1%); format: functional
[19] = test system: AGS; assay: Induction of apoptosis in human AGS cells assessed as necrotic cells at 8 uM measured after 24 hrs by AnnexinV-FITC/PI staining based flowcytometry method (reference value: 0.2%); format: functional
[20] = test system: HGC-27; assay: Inhibition of ERK signalling pathway in human […] cells assessed as downregulation of p-ERK levels at 0 to 10 uM and measured after 24 hrs by western blot analysis; format: cell-based; settings: dose 0-10 µM
[21] = test system: AGS; assay: Inhibition of ERK signalling pathway in human AGS cells assessed as downregulation of p-ERK levels at 0 to 10 uM and measured after 24 hrs by western blot analysis; format: cell-based; settings: dose 0-10 µM
[22] = test system: HGC-27; assay: Induction of apoptosis in human HGC-27 cells assessed as increase in cleaved caspase-9 level at 0 to 10 uM by Western blot analysis; format: functional, cell-based; settings: dose 0-10 µM
[23] = test system: HGC-27; assay: Induction of apoptosis in human HGC-27 cells assessed as early apoptotic cells at 8 uM measured after 24 hrs by AnnexinV-FITC/PI staining based flowcytometry method (reference value: 3.3%); format: functional
[24] = test system: AGS; assay: Induction of apoptosis in human AGS cells assessed as necrotic cells measured after 24 hrs by AnnexinV-FITC/PI staining based flow cytometry method (reference value: 0.1%); format: functional
[25] = test system: HGC-27; assay: Induction of cell cycle arrest in human HGC-27 cells assessed as accumulation of cells at G0/G1 phase at 10 uM incubated for 24 hrs propidium iodide staining-based flow cytometric analysis (reference value: 45.21%); format: functional
[26] = test system: AGS; assay: Induction of cell cycle arrest in human AGS cells assessed as accumulation of cells at G0/G1 phase at 10 uM incubated for 24 hrs propidium iodide staining-based flow cytometric analysis (reference value: 46.51%); format: functional
[27] = test system: HGC-27; assay: Induction of apoptosis in human HGC-27 cells transfected with pcDNA3.1-Drp1 plasmid to overexpress DRP1 assessed as late apoptotic cells measured after 24 hrs by AnnexinV-FITC/PI staining based flow cytometry method (reference value: 2.0%); format: functional
[28] = test system: AGS; assay: Induction of apoptosis in human AGS cells assessed as upregulation of Bax level at 0 to 10 uM by Western blot analysis; format: functional, cell-based; settings: dose 0-10 µM
[29] = test system: AGS; assay: Induction of apoptosis in human AGS cells assessed as viable cells at 8 uM measured after 24 hrs by AnnexinV-FITC/PI staining based flowcytometry method (reference value: 95.2%); format: functional; settings: read-out: Activity
[30] = Toxicity in nude mouse xenografted with human AGS cells assessed as effect on alanine aminotransferase level at 10 to 20 mg/kg, ip administered every other day and monitored every 3 days; format: organism-based; settings: in vivo, 72 h, dose 10-20 mg/kg, time 3 day
[31] = test system: AGS; assay: Inhibition of mitochondrial fission in human AGS cells assessed as reduction in mitochondrial elongated fragments at 0 to 6 uM measured after 24 hrs by mitotracker based confocal microscopy; format: functional, cell-based; settings: dose 0-6 µM
[32] = test system: AGS; assay: Induction of cell cycle arrest in human AGS cells assessed as decrease in Cyclin D1 level at 0 to 10 uM by Western blot analysis; format: functional, cell-based; settings: dose 0-10 µM
[33] = test system: HGC-27; assay: Induction of apoptosis in human HGC-27 cells assessed as downregulation of Bcl-2 level at 0 to 10 uM by Western blot analysis; format: functional, cell-based; settings: dose 0-10 µM
[34] = test system: AGS; assay: Induction of cell cycle arrest in human AGS cells assessed as decrease in CDK4 level at 0 to 10 uM by Western blot analysis; format: functional, cell-based; settings: dose 0-10 µM
[35] = test system: AGS; assay: Induction of apoptosis in human AGS cells assessed as late apoptotic cells at 10 uM measured after 24 hrs by AnnexinV-FITC/PI staining based flowcytometry method (reference value: 3.4%); format: functional

**Q.** For `CC(C)=CCC12Oc3cc(O)ccc3C1(O)Oc1cc(O)c([C@H]3C=C(C)C[C@H](c4ccc(O)cc4O)[C@H]3C(=O)c3ccc(O)cc3O)c(O)c1C2=O` (stereo not given in full), which Activity [1] is on record?
**A.** Non-Toxic

**Q.** What about the inhibition [2] of the same molecule?
**A.** Active

**Q.** And the Activity [3]?
**A.** Non-Toxic

**Q.** What about the Activity [4] of the same molecule?
**A.** Non-Toxic

**Q.** What about the Activity [5] of the same molecule?
**A.** Dde

**Q.** And the pIC50 [6]?
**A.** 5.04

**Q.** What about the Activity [7] of the same molecule?
**A.** Active

**Q.** What about the inhibition [8] of the same molecule?
**A.** Active

**Q.** What about the Activity [9] of the same molecule?
**A.** 7.9%

**Q.** And the Activity [10]?
**A.** Active

**Q.** And the Activity [11]?
**A.** 0.4%

**Q.** And the Activity [12]?
**A.** 61.3%

**Q.** What about the inhibition [13] of the same molecule?
**A.** Active

**Q.** What about the Activity [14] of the same molecule?
**A.** 7.6%

**Q.** And the Activity [15]?
**A.** 4.2%

**Q.** What about the Activity [16] of the same molecule?
**A.** 1.3%

**Q.** And the Activity [17]?
**A.** Active

**Q.** And the Activity [18]?
**A.** 2.4%

**Q.** And the Activity [19]?
**A.** 0.3%

**Q.** And the inhibition [20]?
**A.** Active

**Q.** What about the inhibition [21] of the same molecule?
**A.** Active

**Q.** And the Activity [22]?
**A.** Active

**Q.** And the Activity [23]?
**A.** 4%

**Q.** And the Activity [24]?
**A.** 0.1%

**Q.** What about the Activity [25] of the same molecule?
**A.** 64.2%

**Q.** And the Activity [26]?
**A.** 55.9%

**Q.** And the Activity [27]?
**A.** 1.8%

**Q.** And the Activity [28]?
**A.** Active

**Q.** And the viability at 8 µM [29]?
**A.** 89.8%

**Q.** And the Activity [30]?
**A.** Non-Toxic

**Q.** And the inhibition [31]?
**A.** Active

**Q.** What about the Activity [32] of the same molecule?
**A.** Active

**Q.** What about the Activity [33] of the same molecule?
**A.** Active

**Q.** And the Activity [34]?
**A.** Active

**Q.** What about the Activity [35] of the same molecule?
**A.** 15.3%
